IC50 data for six molecules are collected here from patent US10508077B2 (FORMA Therapeutics, Inc., priority 2015, dated 2019).

For experiment [1], the target named is T1, Full length human recombinant HDAC8 protein (Homo sapiens, UniProt Q9BY41).
T1 construct: Full length human recombinant HDAC8 protein was expressed in baculoviral system; made in house
T1 sequence (Q9BY41 1-377): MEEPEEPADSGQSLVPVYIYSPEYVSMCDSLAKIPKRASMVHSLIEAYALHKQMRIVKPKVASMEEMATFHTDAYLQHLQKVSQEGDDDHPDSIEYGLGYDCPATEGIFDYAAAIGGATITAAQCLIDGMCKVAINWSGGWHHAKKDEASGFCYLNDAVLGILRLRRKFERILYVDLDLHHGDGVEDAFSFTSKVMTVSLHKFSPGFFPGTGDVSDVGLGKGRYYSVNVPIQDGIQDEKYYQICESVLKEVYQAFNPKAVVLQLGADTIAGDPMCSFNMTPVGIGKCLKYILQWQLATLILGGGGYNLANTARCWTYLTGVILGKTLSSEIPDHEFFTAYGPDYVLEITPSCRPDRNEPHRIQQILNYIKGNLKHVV
Nature of the experiment: In vitro histone deacetylase assay: enzymatic HDAC8 assay, electrophoretic mobility shift. The settings on record: substrate RHKK(Ac)-NH2, 1 nM enzyme, compounds listed under IC50 range headings. The class given is biochemical. The gist of the method:
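Baculovirus-expressed full-length human HDAC8 (1 nM) deacetylated 2 µM fluorescent RHKK(Ac)-NH2 peptide in pH 7.5 HEPES, 1% DMSO, at 25 °C, with 12 compound concentrations at 3× spacing. SDS-quenched; product and substrate resolved by microfluidic electrophoresis, P/(S+P) converted to percent inhibition, and IC50 obtained by 4-parameter fit.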
On the technique in general: In EMSA bound probe runs differently from free probe, usually more slowly.

Experiment [2] deals with T2, Recombinant N-terminal GST tag full-length human HDAC8 (Homo sapiens, UniProt Q9BY41).
T2 construct: Recombinant N-terminal GST tag full-length human HDAC8; purchased SignalChem H90-30G-1000; host or cells: Sf9 insect cells (baculovirus)
T2 sequence (Q9BY41 1-377): T1 sequence (Q9BY41 1-377)
Nature of the experiment: HDAC8 probe binding assay, time resolved fluorescence (TRF). The settings on record: fluorescein labeled pan-HDAC inhibitor probe, 16 hours incubation, compounds listed under IC50 range headings. The gist of the method:
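TR-FRET probe displacement using GST-tagged full-length human HDAC8 (Sf9-expressed, 2.5 nM) with 1.5 nM fluorescein-labelled pan-HDAC inhibitor probe and anti-GST terbium, in HEPES pH 7.5 buffer with GSH, BGG, Triton X-100. Compounds 25 μM–1.3 nM, 10-point; 16 h at room temperature. IC50 from 4-parameter fit of % inhibition versus no-enzyme and DMSO controls.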

Structures are written as SMILES.

In the case of `CC(C)(C)OC(=O)N1CCC2(CC1)CCN(c1ccccc1/C=C/C(=O)NO)C2=O` [Example I-310, tert-butyl (E)-2-(2-(3-(hydroxyamino)-3-oxoprop-1-en-1-yl)phenyl)-1-oxo-2,8-diazaspiro[4.5]decane-8-carboxylate], the figures for the IC50 in experiment [1] and in experiment [2] were less than 1000 nM and not above 1000 nM, respectively.

As for `O=C(/C=C/c1ccccc1NC(=O)c1cnc(-c2ccccc2F)s1)NO` [Example I-311, (E)-2-(2-fluorophenyl)-N-(2-(3-(hydroxyamino)-3-oxoprop-1-en-1-yl)phenyl)thiazole-5-carboxamide], the IC50 (as a rule, the midpoint of a concentration-inhibition curve) in experiment [1] is less than 1000 nM; in experiment [2] it was not above 1000 nM.

Consider `Cc1nc(C)c(CN2CCN(c3ccccc3/C=C/C(=O)NO)CC2)s1` [Example I-315, (E)-3-(2-(4-((2,4-dimethylthiazol-5-yl)methyl)piperazin-1-yl)phenyl)-N-hydroxyacrylamide], for which the IC50 in experiment [1] was less than 1000 nM; in experiment [2], not above 1000 nM.

As to `Cc1onc(-c2ccccc2Cl)c1C(=O)Nc1ccccc1/C=C/C(=O)NO` [Example I-320, (E)-3-(2-chlorophenyl)-N-(2-(3-(hydroxyamino)-3-oxoprop-1-en-1-yl)phenyl)-5-methylisoxazole-4-carboxamide], the values for the IC50 in experiment [1] and in experiment [2] were less than 1000 nM and not above 1000 nM, respectively.

Turning to `Cc1ccc(Oc2ccccc2C(=O)Nc2ccccc2/C=C/C(=O)NO)cn1` [Example I-535, (E)-N-(2-(3-(hydroxyamino)-3-oxoprop-1-en-1-yl)phenyl)-2-((6-methylpyridin-3-yl)oxy)benzamide], the values for the IC50 in experiment [1] and in experiment [2] were less than 1000 nM and not above 1000 nM, respectively.

Consider `O=C(/C=C/c1ccccc1NC(=O)c1ccccc1Oc1ccccc1)NO` [Example I-71, (E)-N-(2-(3-(hydroxyamino)-3-oxoprop-1-enyl)phenyl)-2-phenoxybenzamide], for which the figures for the IC50 in experiment [1] and in experiment [2] were less than 1000 nM and not above 1000 nM, respectively.
